{"source": "patent US20080112910A1", "about": "“Cool feeling composition, cool feeling auxiliary composition, and use thereof” (priority 2002, published 2008)", "origin": "cited, not measured here", "conditions": "as compared with menthol", "data": [{"compound": "COC(=O)c1ccccc1O", "note": "[methyl salicylate]", "values": [{"measurement": "stimulation of cool feeling", "value": "very weak"}, {"measurement": "stimulation of hot feeling", "value": "strong"}]}]}
